How the values were obtained:
Assay type in all cases: biochemical
PKC theta kinase = PKC theta kinase (Homo sapiens, UniProt Q04759); test: PKC theta kinase inhibition, coupled-enzyme (NADH absorbance) assay, Ki; conditions: 240 μM ATP, 18 nM PKC theta kinase, 30° C.
How it was run: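 Enzyme and compound equilibrated 10 min at 30 °C before reaction in HEPES pH 7.5 buffer with MgCl2, NaCl, EDTA and Brij. Activity tracked as NADH loss at 340 nm through a coupled system. Initial-rate data fitted by non-linear regression to give Ki.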

PKC delta kinase = PKC delta kinase (Homo sapiens, UniProt Q05655); test: PKC delta kinase inhibition, coupled-enzyme (NADH absorbance) assay, Ki; conditions: 150 μM ATP, 46 nM PKC delta kinase, 30° C.; read-out: Ki PKC delta
How it was run: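 Enzyme and compound pre-equilibrated 10 min at 30° C before adding ATP to 150 μM final. Buffer: HEPES pH 7.5 (100 mM), 10 mM MgCl2, 25 mM NaCl, 0.1 mM EDTA, 0.01% Brij.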

PKC alpha kinase = PKC alpha kinase (Homo sapiens, UniProt P17252); test: PKC alpha kinase inhibition, coupled-enzyme (NADH absorbance) assay, Ki; conditions: 130 μM ATP, 4.5 nM PKC alpha kinase, 30° C.
How it was run: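 Ki derived by non-linear regression of initial rates from a coupled assay tracking NADH absorbance at 340 nm over 15 min at 30 °C. ATP was 130 μM final after a 10 min compound–enzyme preincubation in HEPES pH 7.5 buffer with MgCl2, CaCl2, NaCl, EDTA and Brij.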

Sequence of PKC theta kinase (Q04759 whole entry): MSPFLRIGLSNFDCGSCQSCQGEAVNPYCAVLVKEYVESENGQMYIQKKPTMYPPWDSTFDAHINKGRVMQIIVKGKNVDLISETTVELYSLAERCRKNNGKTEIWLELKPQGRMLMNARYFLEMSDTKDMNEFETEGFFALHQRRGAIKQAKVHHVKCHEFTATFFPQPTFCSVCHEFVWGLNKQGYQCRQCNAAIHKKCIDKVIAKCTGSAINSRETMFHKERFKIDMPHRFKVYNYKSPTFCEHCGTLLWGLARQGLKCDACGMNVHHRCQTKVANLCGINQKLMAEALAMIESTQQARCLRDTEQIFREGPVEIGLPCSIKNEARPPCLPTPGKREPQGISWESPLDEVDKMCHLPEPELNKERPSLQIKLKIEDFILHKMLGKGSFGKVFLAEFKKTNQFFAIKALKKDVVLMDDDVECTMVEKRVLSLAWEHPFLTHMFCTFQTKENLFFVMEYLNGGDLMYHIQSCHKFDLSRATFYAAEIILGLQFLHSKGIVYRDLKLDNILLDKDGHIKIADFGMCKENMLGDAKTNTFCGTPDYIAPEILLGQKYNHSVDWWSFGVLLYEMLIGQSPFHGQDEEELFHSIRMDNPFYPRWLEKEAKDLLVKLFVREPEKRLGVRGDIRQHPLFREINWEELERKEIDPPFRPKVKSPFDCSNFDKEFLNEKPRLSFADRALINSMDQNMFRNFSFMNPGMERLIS
Sequence of PKC delta kinase (Q05655 whole entry): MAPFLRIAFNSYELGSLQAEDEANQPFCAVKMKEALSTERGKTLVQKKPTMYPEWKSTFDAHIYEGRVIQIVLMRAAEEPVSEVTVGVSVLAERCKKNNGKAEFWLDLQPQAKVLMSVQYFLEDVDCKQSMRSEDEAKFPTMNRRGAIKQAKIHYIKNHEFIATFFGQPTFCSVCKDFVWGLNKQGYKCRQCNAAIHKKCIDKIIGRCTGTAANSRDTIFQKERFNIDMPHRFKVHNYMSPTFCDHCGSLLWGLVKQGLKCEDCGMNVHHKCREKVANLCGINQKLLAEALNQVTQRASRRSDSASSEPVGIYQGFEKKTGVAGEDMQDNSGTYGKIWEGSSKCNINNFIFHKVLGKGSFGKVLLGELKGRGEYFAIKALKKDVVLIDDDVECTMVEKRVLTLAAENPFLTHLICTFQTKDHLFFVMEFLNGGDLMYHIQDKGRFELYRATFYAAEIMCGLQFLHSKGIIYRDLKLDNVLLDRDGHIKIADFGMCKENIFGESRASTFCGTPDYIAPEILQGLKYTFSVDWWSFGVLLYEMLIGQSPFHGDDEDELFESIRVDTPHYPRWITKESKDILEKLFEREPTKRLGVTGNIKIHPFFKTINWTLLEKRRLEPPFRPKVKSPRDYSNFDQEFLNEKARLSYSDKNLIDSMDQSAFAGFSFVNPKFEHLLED

SMILES | Ki (PKC theta kinase) [µM] | Ki (PKC delta kinase) [µM] | Ki (PKC alpha kinase) [µM]
FC(F)(F)c1ccc(N2CCNC(C(F)(F)F)C2)nc1-c1n[nH]c2ncccc12 (stereo not drawn) [Compound 65] | < 0.5 | > 2 | > 1.25
CC(C)CC1(C#N)CN(c2ccc(F)c(-c3n[nH]c4ncccc34)n2)C1 [Compound 456] | > 0.7 | > 1.25 | > 1.25
OC1([C@@H]2CN(c3nc(-c4n[nH]c5ncccc45)c(F)cc3F)CCN2)CC1 [Compound 156] | < 0.001 | < 0.5 | > 1.25
CC(C)C1(C)OC(=O)N2CCN(c3ccc(F)c(-c4n[nH]c5ncccc45)n3)CC21 (stereo not drawn) [Compound 439] | < 0.5 | > 1.25 | > 1.25
COC(C)C1CN(c2ccc(C(F)(F)F)c(-c3n[nH]c4ncccc34)n2)CCN1 (stereo not drawn) [Compound 221] | < 0.5 | > 1.25 | > 1.25
CC(C)CC1CCCN(c2ccc(C(F)(F)F)c(-c3n[nH]c4ncccc34)n2)C1 (stereo not drawn) [Compound 333] | > 0.7 | > 1.25 | > 1.25
CC(C)C(C)(O)C1CN(c2nc(-c3n[nH]c4ncccc34)ccc2F)CCN1 (stereo not drawn) [Compound 328] | < 0.001 | < 0.01 | < 0.5
Fc1ccc(N2CC3CCNCC3C2)nc1-c1n[nH]c2ncccc12 (stereo not drawn) [Compound 309] | < 2.8 | > 1.25 | > 1.25
CC(C)C(F)(F)C1CN(c2cccc(-c3n[nH]c4ncccc34)n2)CCN1 (stereo not drawn) [Compound 143] | < 0.5 | < 2.8 | > 1.25
Cc1cc(-c2n[nH]c3ncccc23)nc(N2CCC(N)CC2)c1 [Compound 107] | < 0.5 | > 1.25 | > 1.25
CC(C)CC1(CN)CCN(c2ccc(C(F)(F)F)c(-c3n[nH]c4ncccc34)n2)CC1 [Compound 466] | < 0.5 | > 1.25 | > 1.25
FC(F)(F)c1ccc(N2CCNC(c3ccc(Cl)cc3)C2)nc1-c1n[nH]c2ncccc12 (stereo not drawn) [Compound 173] | > 0.7 | > 1.25 | > 1.25
CC(C)CC1(C)CN(c2ccc(F)c(-c3n[nH]c4ncccc34)n2)CCC1N (stereo not drawn) [Compound 385] | < 0.05 | < 0.5 | < 0.5
CC(C)(F)CC1CN(c2cccc(-c3n[nH]c4ncccc34)n2)CCN1 (stereo not drawn) [Compound 71] | < 0.05 | < 0.5 | > 1.25
CC(C)(F)C(N)C1CCCN(c2ccc(F)c(-c3n[nH]c4ncccc34)n2)C1 (stereo not drawn) [Compound 345] | < 0.05 | < 0.5 | > 1.25
CC(F)(F)CC1CN(c2cccc(-c3n[nH]c4ncccc34)n2)CCN1 (stereo not drawn) [Compound 54] | < 0.05 | < 0.5 | < 2.8
CC(C)(C)C(N)C1CCCN(c2ccc(F)c(-c3n[nH]c4ncccc34)n2)C1 (stereo not drawn) [Compound 331] | < 0.5 | < 2.8 | > 1.25
CC1CN(c2cccc(-c3n[nH]c4ncccc34)n2)C(C)CN1 (stereo not drawn) [Compound 23] | > 0.7 | > 2 | > 1.25
CO[C@H]1CN(c2ccc(C(F)(F)F)c(-c3n[nH]c4ncccc34)n2)CC[C@H]1N [Compound 384] | < 0.5 | > 1.25 | > 1.25
CC1(C)CN(c2ccc(C(F)(F)F)c(-c3n[nH]c4ncccc34)n2)CCN1 [Compound 80] | < 0.5 | < 0.5 | > 1.25
CC1(C)CC1(O)C1CN(c2ccc(F)c(-c3n[nH]c4ncccc34)n2)CCN1 (stereo not drawn) [Compound 382] | < 0.5 | > 1.25 | > 1.25
CC(C)C(F)(F)C1CN(c2ccc(F)c(-c3n[nH]c4ncccc34)n2)CCN1 (stereo not drawn) [Compound 167] | < 0.5 | > 1.25 | > 1.25
CC(C)[C@@](C)(O)[C@@H]1CN(c2nc(-c3n[nH]c4ncccc34)c(F)cc2F)CCN1 [Compound 445] | < 0.001 | < 0.05 | < 0.5
NCC1CCCN(c2ccc(C(F)(F)F)c(-c3n[nH]c4ncccc34)n2)C1 (stereo not drawn) [Compound 128] | > 0.7 | > 1.25 | > 1.25
c1cc(-c2n[nH]c3ncccc23)nc(N2CCNC(C3CC3)C2)c1 (stereo not drawn) [Compound 41] | < 0.05 | < 0.5 | > 1.25
CN(C)CC1CCCN(c2ccc(F)c(-c3n[nH]c4ncccc34)n2)C1 (stereo not drawn) [Compound 305] | > 0.7 | > 1.25 | > 1.25
CC1CN(c2ccc(F)c(-c3n[nH]c4ncccc34)n2)CC1CN (stereo not drawn) [Compound 313] | < 0.5 | > 1.25 | > 1.25

Other lines, results leading:

Ki (PKC theta kinase) [µM] | Ki (PKC delta kinase) [µM] | Ki (PKC alpha kinase) [µM] | SMILES
< 0.05 | < 0.5 | < 0.5 | CC(C)C[C@@]1(O)CN(c2ccc(C(F)(F)F)c(-c3n[nH]c4ncccc34)n2)CC[C@H]1N [Compound 195]
> 0.7 | > 2 | > 1.25 | Cc1cc(-c2n[nH]c3ncccc23)nc(N2CCNCC2)c1 [Compound 93]
< 0.5 | > 2 | > 1.25 | FC(F)(F)c1ccc(N2CCCNCC2)nc1-c1n[nH]c2ncccc12 [Compound 97]
> 0.7 | > 1.25 | > 1.25 | NC(=O)C1(N)CCN(c2ccc(F)c(-c3n[nH]c4ncccc34)n2)CC1 [Compound 399]
< 0.05 | < 0.5 | < 2.8 | CC(C)C[C@H]1CN(c2cccc(-c3n[nH]c4ncccc34)n2)CC[C@@H]1N [Compound 130]
< 0.5 | < 2.8 | > 1.25 | NC1CCN(c2cccc(-c3n[nH]c4ncccc34)n2)CC1 [Compound 61]
< 0.5 | < 0.5 | < 0.5 | C[C@H]1CN(c2cccc(-c3n[nH]c4ncc(Cl)cc34)n2)CCN1 [Compound 43]
< 0.05 | < 0.5 | < 2.8 | CC(C)C[C@@H]1CN(c2ccc(C(F)(F)F)c(-c3n[nH]c4ncccc34)n2)CC[C@@H]1N [Compound 138]
> 0.7 | > 1.25 | > 1.25 | CC(C)CC1(CN)CN(c2ccc(F)c(-c3n[nH]c4ncccc34)n2)C1 [Compound 457]
< 0.05 | < 0.5 | < 2.8 | CC(C)CC1(C)CN(c2nc(-c3n[nH]c4ncccc34)ccc2F)CCN1 (stereo not drawn) [Compound 132]
< 0.5 | > 1.25 | > 1.25 | CC1CN(c2ccc(F)c(-c3n[nH]c4ncccc34)n2)CC(C2(O)CCC2)N1 (stereo not drawn) [Compound 256]
> 0.7 | > 1.25 | > 1.25 | NCc1cccc(-c2ccc(C(F)(F)F)c(-c3n[nH]c4ncccc34)n2)c1 [Compound 306]
< 0.5 | > 1.25 | > 1.25 | CNC(C1CCCN(c2ccc(F)c(-c3n[nH]c4ncccc34)n2)C1)C(C)(C)C (stereo not drawn) [Compound 408]
< 0.05 | < 2.8 | > 1.25 | CC(C)CC1CN(c2ccc(F)c(-c3n[nH]c4ncccc34)n2)CCC1C#N (stereo not drawn) [Compound 370]
< 0.05 | < 0.5 | > 1.25 | CC(F)(F)C(C)(O)C1CN(c2ccc(F)c(-c3n[nH]c4ncccc34)n2)CCN1 (stereo not drawn) [Compound 246]
< 0.05 | < 0.5 | > 1.25 | OC1([C@@H]2CN(c3ccc(F)c(-c4n[nH]c5ncccc45)n3)CCN2)CC1 [Compound 251]
< 0.5 | > 2 | < 2.8 | Cc1cccc(C2CN(c3cccc(-c4n[nH]c5ncccc45)n3)CCN2)c1 (stereo not drawn) [Compound 16]
< 0.5 | < 2.8 | > 1.25 | CC(C)C[C@H]1CN(c2ccnc(-c3n[nH]c4ncccc34)n2)CCN1 [Compound 66]
> 0.7 | > 1.25 | > 1.25 | OC1(C2CN(c3cccc(-c4n[nH]c5ncccc45)n3)CCN2)COC1 (stereo not drawn) [Compound 232]
> 0.7 | > 1.25 | > 1.25 | N#CC1CCN(c2ccc(F)c(-c3n[nH]c4ncccc34)n2)CC1 [Compound 275]
< 0.5 | > 1.25 | > 1.25 | CC(C)C[C@H]1CN(c2cccc(-c3n[nH]c4ncccc34)n2)CC[C@@H]1O [Compound 145]
< 0.5 | > 1.25 | > 1.25 | CC(C)C[C@@H]1C[C@@H](N)CN(c2ccc(C(F)(F)F)c(-c3n[nH]c4ncccc34)n2)C1 [Compound 365]
< 0.5 | > 1.25 | > 1.25 | Fc1ccc(N2CCN3CCCC3C2)nc1-c1n[nH]c2ncccc12 (stereo not drawn) [Compound 290]
< 0.5 | > 2 | < 0.5 | CN1CCCN(c2cccc(-c3n[nH]c4ncccc34)n2)CC1 [Compound 34]
< 0.05 | < 0.5 | > 1.25 | NC1CCN(c2ccc(C(F)(F)F)c(-c3n[nH]c4ncccc34)n2)CC12CCCCC2 (stereo not drawn) [Compound 461]
< 0.05 | < 0.5 | < 2.8 | CC(C)C(C)(O)C1CN(c2cc(CO)cc(-c3n[nH]c4ncccc34)n2)CCN1 (stereo not drawn) [Compound 454]
